Measurements taken from ChEMBL document CHEMBL3045215, “Synthesis and insecticidal activity of 3,4-dihydropyrimidine-2(1H)-thiones against the pulse beetle, Callosobruchus chinensis” (2011).

Legend:
Callosobruchus chinensis [1] = test: Insecticidal activity against Callosobruchus chinensis adults reared on green gram assessed as insect mortality at 1000 mg/L after 24 hr; type: functional
Callosobruchus chinensis [2] = test: Insecticidal activity against Callosobruchus chinensis adults reared on green gram assessed as insect mortality after 24 hr; type: functional

## SC1=NC(c2ccccc2)=CC(c2ccccc2)N1 (configuration not stated)
Callosobruchus chinensis [1]
  mortality at 1000 µg/mL: 75%
Callosobruchus chinensis [2]
  LC50: 0.00795 mg/cm2

## COc1ccc(C2=CC(c3ccc(OC)cc3)NC(=S)N2)cc1 (configuration not stated)
Callosobruchus chinensis [1]
  mortality at 1000 µg/mL: 70%

## S=C1NC(c2ccc(Cl)cc2)=CC(c2ccccc2)N1 (configuration not stated)
Callosobruchus chinensis [1]
  mortality at 1000 µg/mL: 78%
Callosobruchus chinensis [2]
  LC50: 0.00556 mg/cm2

## Cc1ccc(C2=CC(c3ccccc3)NC(=S)N2)cc1 (configuration not stated)
Callosobruchus chinensis [1]
  mortality at 1000 µg/mL: 66%

## COc1ccc(C2=CC(c3ccccc3)NC(=S)N2)cc1 (configuration not stated)
Callosobruchus chinensis [1]
  mortality at 1000 µg/mL: 68%

## Fc1ccc(C2C=C(c3ccccc3)NC(=S)N2)cc1 (configuration not stated)
Callosobruchus chinensis [1]
  mortality at 1000 µg/mL: 60%

## Fc1ccc(C2C=C(c3ccc(Cl)cc3)NC(=S)N2)cc1 (configuration not stated)
Callosobruchus chinensis [1]
  mortality at 1000 µg/mL: 75%
Callosobruchus chinensis [2]
  LC50: 0.00461 mg/cm2

## Cc1ccc(C2=CC(c3ccc(F)cc3)NC(=S)N2)cc1 (configuration not stated)
Callosobruchus chinensis [1]
  mortality at 1000 µg/mL: 68%

## COc1ccc(C2=CC(c3ccc(F)cc3)NC(=S)N2)cc1 (configuration not stated)
Callosobruchus chinensis [1]
  mortality at 1000 µg/mL: 86%
Callosobruchus chinensis [2]
  LC50: 0.00304 mg/cm2

## S=C1NC(c2ccccc2)=CC(c2ccc(Cl)cc2)N1 (configuration not stated)
Callosobruchus chinensis [1]
  mortality at 1000 µg/mL: 90%
Callosobruchus chinensis [2]
  LC50: 0.00289 mg/cm2

## S=C1NC(c2ccc(Cl)cc2)=CC(c2ccc(Cl)cc2)N1 (configuration not stated)
Callosobruchus chinensis [1]
  mortality at 1000 µg/mL: 69%

## Cc1ccc(C2=CC(c3ccc(Cl)cc3)NC(=S)N2)cc1 (configuration not stated)
Callosobruchus chinensis [1]
  mortality at 1000 µg/mL: 93%
Callosobruchus chinensis [2]
  LC50: 0.01227 mg/cm2

## COc1ccc(C2=CC(c3ccc(Cl)cc3)NC(=S)N2)cc1 (configuration not stated)
Callosobruchus chinensis [1]
  mortality at 1000 µg/mL: 82%
Callosobruchus chinensis [2]
  LC50: 0.00175 mg/cm2

## S=C1NC(c2ccccc2)=CC(c2ccccc2Cl)N1 (configuration not stated)
Callosobruchus chinensis [1]
  mortality at 1000 µg/mL: 78%
Callosobruchus chinensis [2]
  LC50: 0.00201 mg/cm2

## S=C1NC(c2ccc(Cl)cc2)=CC(c2ccccc2Cl)N1 (configuration not stated)
Callosobruchus chinensis [1]
  mortality at 1000 µg/mL: 85%
Callosobruchus chinensis [2]
  LC50: 0.00524 mg/cm2

## Cc1ccc(C2=CC(c3ccccc3Cl)NC(=S)N2)cc1 (configuration not stated)
Callosobruchus chinensis [1]
  mortality at 1000 µg/mL: 87%
Callosobruchus chinensis [2]
  LC50: 0.00122 mg/cm2

## COc1ccc(C2=CC(c3ccccc3Cl)NC(=S)N2)cc1 (configuration not stated)
Callosobruchus chinensis [1]
  mortality at 1000 µg/mL: 68%

## COc1ccc(C2C=C(c3ccccc3)NC(=S)N2)cc1 (configuration not stated)
Callosobruchus chinensis [1]
  mortality at 1000 µg/mL: 60%
Callosobruchus chinensis [2]
  LC50: 0.00164 mg/cm2

## COc1ccc(C2C=C(c3ccc(Cl)cc3)NC(=S)N2)cc1 (configuration not stated)
Callosobruchus chinensis [1]
  mortality at 1000 µg/mL: 40%

## COc1ccc(C2C=C(c3ccc(C)cc3)NC(=S)N2)cc1 (configuration not stated)
Callosobruchus chinensis [1]
  mortality at 1000 µg/mL: 80%

## COP(=O)(OC)OC=C(Cl)Cl [DICHLORVOS]
Callosobruchus chinensis [2]
  LC50: 0.00243 mg/cm2
